Reference: patent US11096985B2, “Antimicrobial peptides, their variants and uses” (priority 2015, dated 2021)
Converted amounts (≈) assume the structure as drawn. “Also recorded” adds a separate entry of the source. Where a SMILES comes first, the peptide text is derived from it.

How the values were obtained:
[1] = tested on: Aspergillus flavus (DSM 1959); assay: Radial diffusion assay, antifungal, A. flavus; type: cell-based; conditions: 20 μg
Description: (§1) The radial diffusion assay (RDA) was carried out as described by Andersen et al. (2010). Briefly, 30 ml of 1/10 Muller-Hinton broth (MHB) supplemented with 1% agarose and 5.0×10^5 CFU/ml S. aureus or E. coli or K. pneumoniae, P. aeruginosa cells was poured into a single-well omnitray (Nunc) and overlaid with a TSP 96-well plate. One hundred μg of each synthesized peptide was tested. The peptides were also tested against Fusarium oxysporum and Verticillium dahliae, for which 1/3 potato dextrose agarose was used. To test the synergistic effect of peptides, each peptide was mixed in equimolar concentrations. Mix1 (met1-12), Mix2 (met3, 4 and 5), Mix3 (met 8, 9 and 10), Mix 4 (met11, 12) and Mix5 (8, 9, 10, 11, 12) were prepared and tested against E. coli and S. aureus. Gentamicin and vancomycin were included as positive controls for bacteria and amphotericin B was used as the control for fungi.
(§2) By using rational design techniques, we have designed variants of peptides by incorporating or replacing various amino acids in the original peptides. Thus, we have designed and modified Chain 100, Chain 200 and Chain 300 with tryptophan (W), arginine (R) and lysine (K) at various positions to improve antimicrobial activity (FIGS. 4a-c and 5a-c). In some peptides we have also used other amino acids such as Leucine (L), Cysteine (C), Isoleucine (I), Phenylalanine (F) and Alanine (A). For synthesis, 32 variants and 3 original peptides were selected based on the various parameters such as positive charge, aliphatic index and instability index. Peptides variants were tested by using radial diffusion assay against Escherichia coli (ATCC 25922), Staphylococcus aureus (ATCC 25923), Klebsiella pneumoniae (ATCC 10031) and Pseudomonas aeruginosa (ATCC 27853) (FIGS. 6a-c). The zone of inhibition ranged between 10-18 mm for Escherichia coli and Staphylococcus aureus, 6-18 mm & 8-18 mm for Pseudomonas aeruginosa and Klebsiella pneumonia respectively (Table 2). For Gentamicin it was between 22-24 mm. Antifungal activity was tested for promising antibacterial peptides (Chains 104, 105, 109, 201, 204, 306, 307, 308, 310) against Aspergillus flavus (DSM 1959) and Penicillium chrysogenum (DSM 1075). All these peptides has activity at a concentration of 20 μg, Amphotericin B was used as a positive control at 20 μg (FIG. 7).

[2] = tested on: Penicillium chrysogenum (DSM 1075); assay: Radial diffusion assay, antifungal, P. chrysogenum; type: cell-based; conditions: 20 μg
Description: as §1, §2

4 ATCC bacterial strains = assay: Effect of NaCl on MIC; type: cell-based; conditions: 200 mM NaCl in MH medium
Description: (§4) Thermal stability was evaluated by diluting peptides to the concentration of 2 mg/ml in PBS buffer (pH 7.4) and incubating at different temperatures, such as +4° C., 25° C. (RT), 37° C. and 45° C., peptides stored at −20° C. were used as control. […] Peptides were also tested by diluting them at different pH values starting from pH 4 to 9. The effect of NaCl on the antimicrobial activity was tested by adding different concentrations (50, 100 and 200 mM) of NaCl to MH medium and the minimum inhibitory concentrations were tested against 4 ATCC bacterial strains.

[3] = tested on: gram positive and negative bacteria; assay: MIC by micro broth dilution, summary over the strains tested; type: cell-based
Description: (§3) Minimum inhibition concentrations (MICs) were determined against Escherichia coli (ATCC 25922), Staphylococcus aureus (ATCC 25923), Klebsiella pneumoniae (ATCC 10031) and Pseudomonas aeruginosa (ATCC 27853). Also clinical strains of E. coli, K. pneumoniae, E. cloacae, P. aeruginosa, Serratia marcescens, Proteus mirabilis, S. pneumoniae, Acinetobacter baumannii, A. johnsonii and S. aureus were used for MICs assays. Additionally, clinical strains of yeast including Candida albicans, C. glabrata, C. parapsilosis and C. quillermondiae were used. The susceptibility of these microorganisms to Chain peptides were determined using micro broth dilution assay. Colonies of the respective microorganism from Muller Hinton (MH) agar plates incubated overnight were suspended in MH broth media and final concentration of microorganism was adjusted to 5.0×10^5 cfu/ml. An aliquot of 10 μl of each Chain peptide, or gentamicin, tetracycline as reference antibiotics were added in differing concentrations along with 90 μl of bacterial suspension to 96 well polypropylene plates and incubated at 37° C. for 20 to 24 hours. Concentrations of Chain peptides and reference antibiotics ranged from 0.125 to 128 μg/ml and the MICs were recorded as the lowest concentration with no visual growth of bacteria. Similarly, antifungal MICs were tested in Potato dextrose broth.

[4] = +4, 25, 37 and 45° C., 14 days, PBS pH 7.4, RDA with 20 μg
Description: as §4

[5] = pH 4-9, RDA
Description: as §4

[6] = tested on: Escherichia coli (ATCC 25922); type: cell-based; conditions: ATCC 25922
Description: as §3

[7] = tested on: Klebsiella pneumoniae (ATCC 10031); type: cell-based; conditions: ATCC 10031
Description: as §3

[8] = tested on: Pseudomonas aeruginosa (ATCC 27853); type: cell-based; conditions: ATCC 27853
Description: as §3

[9] = tested on: Staphylococcus aureus (ATCC 25923); type: cell-based; conditions: ATCC 25923
Description: as §3

human erythrocytes = type: cell-based
Description: In hemolysis assays, the ability of peptides at 128 μg/ml concentration to lyse human erythrocytes to release hemoglobin was measured. The peptides described here preferably have low hemolytic activity (0.2 to 3.8% hemolysis) in mammal body. […] These peptides are useful as antimicrobial drugs as they show little or no side effects at concentrations needed to kill bacteria.
Minimum inhibition concentrations (MICs) were tested by microbroth dilution method and Chain 104, 105 and 109 inhibited the growth of Escherichia coli (ATCC 25922), Staphylococcus aureus (ATCC 25923), Klebsiella pneumoniae (ATCC 10031) and Pseudomonas aeruginosa (ATCC 27853) between 1-8 μg/ml respectively (Tables 3a, 3b and 3c). The membranolytic activities of the peptides were tested by measuring the release of hemoglobin from erythrocytes of fresh blood donated by voluntiers. Hemoglobin levels were determined spectrometrically by taking OD at 540 nm by following the protocol of Schmidtchen et al., 2011.

E. coli = assay: Transmission electron microscopy of treated E. coli; type: cell-based, Escherichia coli; conditions: 10 μg/ml, 37° C., 1 h
Description: E. coli and S. aureus were grown to mid-exponential phase and diluted in Muller Hinton broth (MHB) medium to a cell density of 0.1 by taking absorbance at 600 nm and incubated at 37° C. for 1 h with 10 μg/ml Chain peptides. After incubation, an equal volume of 2% glutaraldehyde in 0.1 M phosphate buffer was added and the cells were pelleted by centrifugation at 5000 rpm for 2 minutes, and the cell pellet was fixed with 1% glutaraldehyde in 0.1 M phosphate. Cells were post-fixed with osmium tetroxide, dehydrated using increasing concentrations of acetone or alcohol, and embedded in plastic resin (Epon). Ultrathin sections (70-80 nm) were post-stained with uranyl acetate and lead citrate before observation with TEM. Microscopy was performed with a Tecnai G2 Spirit 120 kV TEM with Veleta and Quemesa CCD cameras.

S. aureus COL (MRSA) = assay: Synergistic activity with Ertapenem (4 μg/ml) against MRSA, MIC; type: cell-based, Staphylococcus aureus; conditions: Ertapenem 4 μg/ml; L-form
Description: as §3
Peptides Chain 104, Chain 105, Chain 201, Chain 308, Chain 310 were tested against antibiotic-sensitive strains of S. aureus RN4220 and methicillin resistant strains of S. aureus COL (MRSA). Chain peptides comprising of either L- or D-form amino acids were tested against these bacteria, and the D-form peptides were found have better activity compared to L-form (Table 6). Synergistic activity of chain peptides along with Ertapenem (4 μg/ml) was tested to know whether it will influence the activity against MRSA strains. […] Chain 310 has the best antibacterial activity against the MRSA strains with a MIC of 0.06 & 0.03 μg/ml along with Ertapenem (4 μg/ml) for both forms of L and D-peptides (Table 6).

S. aureus = assay: Antibacterial activity analysis of En-MAP1 protein; type: cell-based, Staphylococcus aureus
Description: Both folded and unfolded proteins were tested for antibacterial activity against S. aureus by pipetting 10 μg of protein on the S. aureus culture on an LB plate. The activity was also tested in folded and unfolded protein digested with trypsin in 0.01% acetic acid at concentrations of 30 and 60 μg/ml.

Molecule: CC(C)C[C@H](NC(=O)[C@H](CCCNC(=N)N)NC(=O)[C@H](Cc1c[nH]c2ccccc12)NC(=O)[C@H](CCCNC(=N)N)NC(=O)[C@H](CCCCN)NC(=O)[C@H](CC(C)C)NC(=O)[C@@H](N)CCCNC(=N)N)C(=O)N[C@@H](Cc1ccccc1)C(=O)N[C@@H](CCCNC(=N)N)C(=O)N[C@@H](CCCCN)C(=O)N[C@@H](CCCNC(=N)N)C(=O)O [Chain306] (H-RLKRWRLFRKR-OH; N-terminus and C-terminus assumed)
- antifungal activity against Aspergillus flavus [1]: has activity; also recorded: particularly active
- antifungal activity against Penicillium chrysogenum [2]: has activity; also recorded: particularly active
- increase in MIC values with NaCl (4 ATCC bacterial strains): 2 fold
- activity against the four ATCC strains [3]: very active
- thermostability (antibacterial activity kept after incubation) [4]: not hindered by pH or temperature even upto 45 °C for over 14 days
- pH stability (zone of inhibition) [5]: not hindered by pH

Molecule: CC[C@H](C)[C@H](NC(=O)[C@H](CCCCN)NC(=O)[C@H](CCCNC(=N)N)NC(=O)[C@H](Cc1c[nH]c2ccccc12)NC(=O)[C@H](CCCNC(=N)N)NC(=O)[C@@H](NC(=O)[C@@H](NC(=O)[C@H](CCCNC(=N)N)NC(=O)[C@@H](N)Cc1c[nH]c2ccccc12)[C@@H](C)CC)C(C)C)C(=O)N[C@@H](CCCCN)C(=O)N[C@@H](CCCNC(=N)N)C(=O)O [Chain209] (H-WRIVRWRKIKR-OH; N-terminus and C-terminus assumed)
- Minimum inhibitory concentration, Escherichia coli (ATCC 25922) [6]: 64 µg/mL (≈ 40.1 µM)
- Minimum inhibitory concentration, Klebsiella pneumoniae (ATCC 10031) [7]: >128 µg/mL
- Minimum inhibitory concentration, Pseudomonas aeruginosa (ATCC 27853) [8]: >128 µg/mL
- Minimum inhibitory concentration, Staphylococcus aureus (ATCC 25923) [9]: >128 µg/mL

Molecule: CC(C)C[C@H](NC(=O)[C@H](CC(C)C)NC(=O)[C@H](Cc1ccccc1)NC(=O)[C@H](Cc1c[nH]c2ccccc12)NC(=O)[C@H](CCCCN)NC(=O)[C@H](CC(C)C)NC(=O)[C@@H](N)CCCNC(=N)N)C(=O)N[C@@H](Cc1ccccc1)C(=O)N[C@@H](CCCNC(=N)N)C(=O)N[C@@H](CCCCN)C(=O)N[C@@H](CCCNC(=N)N)C(=O)O [Chain308] (H-RLKWFLLFRKR-OH; N-terminus and C-terminus assumed)
- antifungal activity against Aspergillus flavus [1]: has activity; also recorded: particularly active
- antifungal activity against Penicillium chrysogenum [2]: has activity; also recorded: particularly active
- side effects to humans as tested by hemolysis assay (human erythrocytes): little side effects
- increase in MIC values with NaCl (4 ATCC bacterial strains): 2 fold
- TEM observation of E. coli cells (E. coli): almost all E. coli cells had lost their rod-shaped structural integrity
- activity against the four ATCC strains [3]: very active
- thermostability (antibacterial activity kept after incubation) [4]: not hindered by pH or temperature even upto 45 °C for over 14 days
- pH stability (zone of inhibition) [5]: not hindered by pH

Molecule: CC(C)C[C@H](NC(=O)[C@H](CCCCN)NC(=O)[C@H](CCCCN)NC(=O)[C@H](Cc1ccccc1)NC(=O)[C@H](CC(C)C)NC(=O)[C@H](Cc1c[nH]c2ccccc12)NC(=O)[C@H](CCCNC(=N)N)NC(=O)[C@H](Cc1c[nH]c2ccccc12)NC(=O)[C@H](CCCCN)NC(=O)[C@H](CCCNC(=N)N)NC(=O)[C@@H](N)CCCCN)C(=O)O [Chain310] (H-KRKWRWLFKKL-OH; N-terminus and C-terminus assumed)
- antifungal activity against Aspergillus flavus [1]: has activity; also recorded: particularly active
- antifungal activity against Penicillium chrysogenum [2]: has activity; also recorded: particularly active
- side effects to humans as tested by hemolysis assay (human erythrocytes): little side effects
- MIC against MRSA strains along with Ertapenem, L-peptide (S. aureus COL (MRSA)): 0.06 µg/mL
- activity against the four ATCC strains [3]: very active

B1: En-MAP1: protein of 549 amino acids from an endophyte of Empetrum nigrum, GenBank KC466596 (protein, listed as Empetrum nigrum)
chain: MRLVAHPVPDAPLYALMIKACSMGIPQPNDNLWKPRNPLLAKEEKTSKRGRTAPDTERALDLFREMTLRYNIRPTAEVYTAIIAACVKRDDMYDKGFGLFKKMVELERNRMSSEGHDSTSFAPTRATYNALLRGCARNKDLLRARWILAEMLRTAQAKWQEFMEKSKKGEEGVQEWELLEVEEMRPDTNTMAFLFYTYASHTTSSKAVPETEGKKELEGKAEERASEVTSVSPVSEPPEPMDESKLVYSLPTSSQAILREVTSLLDRIKSDQGQQSNLLSSVQINSKLLNSYIAVLSAHCRSSQVVERISEVVVGTKENPKSLFEETGTSVNGYTCFTVIDACGMMEHSPDTYHLACEMWQRWLSLVENATFHRENPLKAKEIGLDSRTISDCWSAMIRLHAKYNQVDEAMKLVHEFARLYPPASLFNSLTFEPSSTSSSSLSPRKGVQEISPLFSSTSLTHSIRGRDISRIQNTMSQDPTLQFRAVQILHLRLVELETRPKDLAYLSWLLKSYEHQLQPKRPKSLQGDLFTSRQAAYNRIVQQRTSSR
- antibacterial activity against S. aureus, trypsin digest of folded protein (S. aureus; folded full protein digested with trypsin): antibacterial activity was observed for up to two hours after digestion
- antibacterial activity against S. aureus (S. aureus; folded protein or expressed fragments): no activity was observed
- antibacterial activity against S. aureus, trypsin digest of unfolded protein (S. aureus; unfolded protein digested with trypsin): No activity was detected
